From PMC11882969 (Nature Communications, 2025)
Values joined by “and” are separate entries in the source; they are usually repeats but may differ in a detail not shown here. Equal values may be shown once.

Key:
[1] = Pharmacokinetics: plasma, brain, CSF; conditions: male, CD-1, mouse, 0.2 mg/kg; for concentration at 30 min / concentration at 60 min / concentration at 120 min / concentration at 240 min / concentration at 360 min / concentration at 480 min / concentration at 1 min / concentration at 5 min / concentration at 15 min: intraperitoneal
mice [2] = assay: Catalepsy test, vertical wire mesh; format: in vivo, mouse; conditions: for Individual animal values (FigS11d): test not printed on the sheet
Procedure: Thirty min after an i.p. injection of the compounds, mice were placed on a vertical wire mesh and the latency to move all four paws was recorded.

mice [3] = assay: Acetone test, cold allodynia after spared nerve injury; format: in vivo, mouse
Procedure: Mice were placed on a wire mesh and thirty min after an i.p. injection of the compounds we applied a drop (50 μL) of acetone on the ventral aspect of the hindpaw, 5 times every 30 sec. We recorded the number of nocifensive behaviors (paw lifts/licks/shakes/bites) over the 5 applications.

[4] = target: T1, CB1R with G protein (Gi1-3, Go) (Homo sapiens, UniProt P21554); assay: GTP turnover assay (GTPase-Glo); format: biochemical; conditions: replicates, sheet FigS3c
T1 construct: a N-terminal FLAG tag and C-terminal histidine tag was added to human full-length CB1; FLAG (N); histidine tag (C); made in house; host or cells: CB1R: Spodoptera frugiperda Sf9; G proteins: Trichoplusia ni Hi5
Procedure: Analysis of GTP turnover was performed by using a modified protocol of the GTPase-Glo^TM assay (Promega) described previously. Ligand-bound (10 μM ligand incubated for one hour at room temperature) or apo CB1R (1 μM) was mixed with G protein (1 μM) in 20 mM HEPES, pH 7.5, 50 mM NaCl, 0.01% L-MNG/0.001% CHS, 100 μM TCEP, 10 μM GDP and 10 μM GTP and incubated at room temperature. GTPase-Glo-reagent was added to the sample after incubation for 60 min (Gi1-3) and 20 min for (Go). Luminescence was measured after the addition of detection reagent and incubation for 10 min at room temperature using a SpectraMax Paradigm plate reader.

mice [5] = assay: Rotarod test; format: in vivo, mouse

T1 sequence (P21554 whole entry): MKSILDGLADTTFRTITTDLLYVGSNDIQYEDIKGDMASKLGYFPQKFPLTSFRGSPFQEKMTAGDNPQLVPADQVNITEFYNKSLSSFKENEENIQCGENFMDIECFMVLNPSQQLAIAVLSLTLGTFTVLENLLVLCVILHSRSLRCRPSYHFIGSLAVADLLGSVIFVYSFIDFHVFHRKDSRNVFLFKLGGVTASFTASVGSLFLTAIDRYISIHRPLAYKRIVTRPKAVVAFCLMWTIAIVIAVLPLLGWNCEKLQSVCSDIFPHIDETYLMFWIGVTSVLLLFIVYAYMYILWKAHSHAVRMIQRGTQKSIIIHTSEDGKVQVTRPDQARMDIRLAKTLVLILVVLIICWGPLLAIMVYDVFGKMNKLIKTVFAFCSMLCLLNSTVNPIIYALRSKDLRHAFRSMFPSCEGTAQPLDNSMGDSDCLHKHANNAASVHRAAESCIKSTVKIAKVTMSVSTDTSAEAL

COC(=O)[C@@](C)(NC(=O)c1cc(C)n(-c2cccc(C(F)(F)F)c2)n1)c1cccs1 [‘1350]
concentration at 30 min ([1]; CSF): 0 ng/mL
concentration at 60 min ([1]; CSF): 0 ng/mL
concentration at 120 min ([1]; CSF): 0 ng/mL
concentration at 240 min ([1]; CSF): 0 ng/mL
concentration at 360 min ([1]; CSF): 0 ng/mL
concentration at 480 min ([1]; CSF): 0.14 ng/mL
concentration at 1 min ([1]; brain): 0 ng/g
concentration at 5 min ([1]; brain): 8.24 ng/g
concentration at 15 min ([1]; brain): 41.8 ng/g
concentration at 30 min ([1]; brain): 29.5 ng/g
concentration at 60 min ([1]; brain): 44.1 ng/g
concentration at 120 min ([1]; brain): 33.1 ng/g
concentration at 240 min ([1]; brain): 4.35 ng/g
concentration at 360 min ([1]; brain): 8.81 ng/g
concentration at 480 min ([1]; brain): 2.87 ng/g
half-life ([1]; brain, ip): 1.87 h
concentration at 1 min ([1]; plasma): 0 ng/mL
concentration at 5 min ([1]; plasma): 6.41 ng/mL
concentration at 15 min ([1]; plasma): 10.8 ng/mL
concentration at 30 min ([1]; plasma): 5.48 ng/mL
concentration at 60 min ([1]; plasma): 7.25 ng/mL
concentration at 120 min ([1]; plasma): 6.15 ng/mL
concentration at 240 min ([1]; plasma): 0.376 ng/mL
concentration at 360 min ([1]; plasma): 1.1 ng/mL
concentration at 480 min ([1]; plasma): 0.486 ng/mL
AUC(0-inf) ([1]; plasma, ip): 25.2 ng·h/mL
Cmax ([1]; plasma, ip): 10.8 ng/mL and 25 nM
half-life ([1]; plasma, ip): 1.85 h
catalepsy (Figure6c), individual animals (mice [2]; 0.2 mg/kg dose): 7 and 4 and 15 and 2 (2×)
catalepsy (Figure6c), individual animals (mice [2]; 0.5 mg/kg dose): 2 and 10 and 30 and 20 and 5 and 0.5 and 2.4 and 2.2 and 2.3 and 0.7 and 1 and 2.7 and 2.9 and 2.1 and 1.4
catalepsy (Figure6c), individual animals (mice [2]; 1 mg/kg dose): 16 and 5 and 4 and 30 and 6
catalepsy at a sedating dose (mice [2]; 1 mg/kg i.p.): non-significant, but nevertheless, increased latency to move the paws
catalepsy in CB1R knockout (mice [2]; 1 mg/kg, CB1R KO mice): eliminated this minimal cataleptic effect
catalepsy in CB2R knockout (mice [2]; 1 mg/kg, CB2R KO vs wildtype): statistically significant increase in catalepsy
Individual animal values (FigS11d) (mice [2]; CB1R KO mice, 1 mg/kg): 3.1 and 2.8 and 2.7 and 1.8
Individual animal values (FigS11d) (mice [2]; CB2R KO mice, 0.2 mg/kg): 2.2 and 2.7 and 4 and 4.2 and 2.8
Individual animal values (FigS11d) (mice [2]; CB2R KO mice, 0.5 mg/kg): 3.3 and 4.3 and 29.3 and 28 and 5.6
Individual animal values (FigS11d) (mice [2]; CB2R KO mice, 1 mg/kg): 40 and 2
Individual animal values (FigS11d) (mice [2]; WT mice, 0.2 mg/kg): 7 and 4 and 15 and 2
Individual animal values (FigS11d) (mice [2]; WT mice, 0.5 mg/kg): 2.4 and 2.2 and 2.3 and 0.7 and 1 and 2.7 and 2.1 and 1.4 and 2 and 10 and 30 and 20 and 5
Individual animal values (FigS11d) (mice [2]; WT mice, 1 mg/kg): 16 and 5 and 4 and 30 and 6
dose at which catalepsy starts (mice [2]; i.p.): 1 mg/kg
catalepsy, latency to move all four paws (mice [2]; i.p., ‘1350 at 0.2 or 0.5 mg/kg, haloperidol 1.0 mg/kg): did not induce cataleptic behavior
acetone test response after spared nerve injury (Figure5b), individual animals (mice [3]; Dose 0.05 mg/kg): 48 and 66 and 108 and 56 and 46
acetone test response after spared nerve injury (Figure5b), individual animals (mice [3]; Dose 0.1 mg/kg): 38 and 48 and 28 and 64 and 18
acetone test response after spared nerve injury (Figure5b), individual animals (mice [3]; Dose 0.2 mg/kg): 26 and 54 and 32
lowest dose with significant anti-allodynia, acetone test (mice [3]; i.p.): 0.05 mg/kg
effect on acetone-induced nocifensive behaviors (mice [3]; spared nerve injury, i.p.): strongly reduced spared nerve injury-induced cold allodynia
GTP turnover, normalised (FUB about 100) ([4]; Gi2): 96.8998 and 91.3876 and 87.4526 and 89.8295 and 89.8906 and 82.6279
GTP turnover, normalised (FUB about 100) ([4]; Gi3): 81.2301 and 82.2228 and 81.0231 and 89.3188 and 82.6055 and 85.3572
GTP turnover, normalised (FUB about 100) ([4]; Goa): 86.5272 and 96.4818 and 93.6031 and 96.9291 and 99.611 and 94.5957
GTP turnover, normalised (FUB about 100) ([4]; first block, G protein not printed (Gi2, Gi3, Goa follow)): 83.1663 and 86.2553 and 85.2024 and 81.617 and 83.7026 and 83.2158
rotarod performance (Figure6b), individual animals (mice [5]; Dose 0.1 mg/kg): 275 and 300
rotarod performance (Figure6b), individual animals (mice [5]; Dose 0.2 mg/kg): 300 and 226 and 231 and 240 and 274 and 298 and 237 and 211
rotarod performance (Figure6b), individual animals (mice [5]; Dose 0.5 mg/kg): 123 and 300 and 128 and 153
dose showing locomotor deficits or sedation, rotarod (mice [5]; i.p.): 0.5 mg/kg
